Marks after values point to notes of the source that are not given here. Where a SMILES comes first, the peptide text is derived from it. Where no end group is shown, it is not given here. [ ]: non-standard residue; d: D form. The star is where a group is joined. d2Nal = N[C@H](Cc1ccc2ccccc2c1)C(=O)O; Octanoyl = CCCCCCCC(=O)*
Tests used:
SOD1^G93A mice [1] = assay: Repeated subcutaneous GHRP-6 or anamorelin from the age of 10 weeks: body weight, food intake, survival (Example 9); assay type: in vivo, mouse; settings: mean ± SE; for Survival period: 1 mg/kg subcutaneously twice a day from age 10 weeks until death; for Amount of change in body weight / Food intake: 1 mg/kg subcutaneously twice a day from age 10 weeks, after 5-weeks of administration
Procedure: In the experiment, 10-week-old SOD1^G93A mice were used, which were divided into 3 groups: a vehicle group, a GHRP-6 group, and an anamorelin group. GHRP-6 (1 mg/kg), anamorelin (1 mg/kg), or a vehicle (5% mannitol solution) was subcutaneously administered thereto twice a day from the age of 10 weeks until death. Their body weight and feed weight were measured before the start of administration and after 5-weeks of administration to calculate the amount of change in body weight and food intake. The survival period of each individual was also analyzed.

MuRF1 mRNA = MuRF1 mRNA expression in gastrocnemial muscle by quantitative PCR under restricted feeding (Example 6); assay type: in vivo, mouse; settings: relative to WT-control group = 100%, 7 weeks after start
Procedure: (§1) In the experiment, 10-week-old SOD1^G93A and WT mice were used. The WT mice were divided into 2 group, one of which was raised under voluntary intake conditions (WT-control group) and the other of which was given 2.8 to 2.9 g/day which corresponded to approximately 90% of the daily food intake under voluntary intake conditions of the SOD1^G93A mice (WT-restricted feeding group).
(§2) Human ghrelin (50 μg/day, approximately 2 mg/kg/day) was dissolved in a vehicle (saline solution) to prepare a dosing solution. An osmotic pump (ALZET® MINI-OSMOTIC PUMP MODEL 1004, DURECT Corporation) filled with the dosing solution or a saline solution was subcutaneously implanted into the back of each mouse for continuous subcutaneous administration. The administration was started from the age of 10 weeks, and the osmotic pump was replaced with a fresh one 4 weeks later.
(§3) The gastrocnemial muscles were isolated, and after mRNA extraction, the Atrogin-1 and MuRF1 mRNA expression levels were measured by quantitative PCR. The measurement value of each group was calculated as a relative value when the average mRNA expression level in the WT-control group was defined as 100%.

SOD1^G93A mice [2] = assay: Continuous subcutaneous human ghrelin under restricted feeding: body weight, skeletal muscle, motor neurons, muscle strength (Example 6); assay type: in vivo, mouse; settings: 50 μg/day continuous subcutaneous
Excerpt: In this Example, SOD1^G93A mice were raised under restricted feeding by which the daily food intake of the SOD1^G93A mice under voluntary intake conditions was set to approximately 90%. […] The administered ghrelin was examined for its effects on body weight, skeletal muscle mass, muscle strength, the number of motor neurons, and mRNA expression of Atrogin-1 and Muscle RING-finger protein-1 (MuRF1), which are both involved in skeletal muscle wasting.
as §1, §2
Their body weights were measured at the start day of administration and after 6 weeks to calculate the amount of change in body weight.
The forelimb muscle strength was measured using a rat/mouse simple sthenometer; 200 g scale (O'HARA & CO., LTD.) 7 weeks after the start of administration.
The lower-body skeletal muscle masses of the mice were measured using X-ray CT (Latheta LCT-200, Hitachi Aloka Medical, Ltd.) before the start of administration (at the age of 10 weeks) and after 7 weeks to determine the amount of change in skeletal muscle mass.
Then, the mice were anatomized, and the T9 regions of their spinal cords were extracted. Nissl-stained sections were prepared, and the number of motor neurons was histologically identified. Three non-adjacent sections were used per individual to measure the number of motor neurons present in the anterior horn. The measurement value of each group was calculated as a relative value when the average number of motor neurons in the WT-control group was defined as 100%.

SOD1^G93A mice [3] = assay: Repeated subcutaneous human ghrelin from the age of 10 weeks: body weight, food intake, muscle strength, survival (Example 5); assay type: in vivo, mouse
Procedure: In the experiment, 10-week-old SOD1^G93A mice were used, which were divided into 2 groups: a vehicle group and a human ghrelin group. Human ghrelin (1 mg/kg) or a vehicle (5% mannitol solution) was subcutaneously administered thereto twice a day from the age of 10 weeks until death. Their body weights and feed weights were measured before the start of administration and after 8-weeks of administration to calculate the amount of change in body weights and the food intakes. The forelimb muscle strengths were measured using a rat/mouse simple sthenometer; 200 g scale (O'HARA & CO., LTD.) before the start of administration and after 8-weeks of administration. The survival period of each individual was also analyzed.

SOD1^G93A mice [4] = assay: Survival period with continuous subcutaneous human ghrelin from the age of 16 weeks (Example 8); assay type: in vivo, mouse; settings: 50 μg/day continuous subcutaneous from age 16 weeks
Procedure: as §2, with “In the experiment, 16-week-old SOD1^G93A mice were used, which were divided into 2 groups: a vehicle group and a human ghrelin group. Human” for “Human”, “16 weeks” for “10 weeks,”, “and continued to the live individuals with” for “and”, “pump” for “pump was”, “one every” for “one”, “weeks. The survival period of each individual was analyzed.” for “weeks later.”

Atrogin-1 mRNA = Atrogin-1 mRNA expression in gastrocnemial muscle by quantitative PCR under restricted feeding (Example 6); assay type: in vivo, mouse; settings: relative to WT-control group = 100%, 7 weeks after start
Procedure: as §1, §2, §3

SOD1^G93A mice [5] = assay: Continuous subcutaneous human ghrelin from the age of 10 weeks: body weight, food intake, skeletal muscle mass, cholesterol, muscle strength, survival (Example 3); assay type: in vivo, mouse
Procedure: In some Examples, the WT mice were also used.
as §2, with “In the experiment, 10-week-old SOD1^G93A mice were used, which were divided into 2 groups: a vehicle group and a human ghrelin group. Human” for “Human”, “weeks” for “weeks,”, “and continued to the live individuals with” for “and”, “pump” for “pump was”, “one every” for “one”, “weeks.” for “weeks later.”
Their body weight and feed weight was measured before the start of administration and after 8-weeks of administration to calculate the amount of change in body weight and the food intake. After 8-weeks of administration, the lower-body skeletal muscle masses of the mice were measured using X-ray CT (Latheta LCT-200, Hitachi Aloka Medical, Ltd.). The plasma total cholesterol concentrations were measured with Cholesterol E—Test Wako (Wako Pure Chemical Industries, Ltd.) using plasma separated from blood collected from the tail vein after 8-weeks of administration. The forelimb muscle strengths were measured using a rat/mouse simple sthenometer; 200 g scale (O'HARA & CO., LTD.) on the 16th week of age. The survival period of each individual was also analyzed.

SOD1^G93A mice [6] = assay: Motor neuron protective effect of continuous subcutaneous human ghrelin, Nissl-stained T9 spinal cord sections (Example 4); assay type: in vivo, mouse; settings: relative to WT control group = 100%; 50 μg/day continuous subcutaneous, 7 weeks after start, T9 anterior horn; mean ± SE
Procedure: In the experiment, 10-week-old SOD1^G93A and WT mice were used. […] Vehicle-administered WT mice were used as a control group. Human ghrelin (50 μg/day, approximately 2 mg/kg/day) was dissolved in a vehicle (saline solution) to prepare a dosing solution. An osmotic pump (ALZET® MINI-OSMOTIC PUMP MODEL 1004, DURECT Corporation) filled with the dosing solution or a saline solution was subcutaneously implanted into the back of each mouse for continuous subcutaneous administration. The administration was started from the age of 10 weeks and continued after replacement of the osmotic pump with a fresh one 4 weeks later. Seven weeks after the start of administration, the mice were anatomized, and the T9 regions of their spinal cords were extracted. Nissl-stained sections were prepared, and the number of motor neurons was histologically identified. Three non-adjacent sections were used per individual to measure the number of motor neurons present in the anterior horn. The measurement value of each group was calculated as a relative value when the average number of motor neurons in the control group was defined as 100%.

[7] = system: rat adrenal pheochromocytoma-derived PC-12 cells; settings: cited from earlier work
[8] = 1 mg/kg subcutaneously twice a day from age 10 weeks, after 8-weeks of administration, mean ± SE
[9] = 50 μg/day continuous subcutaneous from age 10 weeks, after 8-weeks of administration, mean ± SE

C[C@H](NC(=O)[C@@H](Cc1c[nH]c2ccccc12)NC(=O)[C@@H](N)Cc1c[nH]cn1)C(=O)N[C@@H](Cc1c[nH]c2ccccc12)C(=O)N[C@H](Cc1ccccc1)C(=O)N[C@@H](CCCCN)C(N)=O [GHRP-6, L-Histidyl-D-tryptophyl-L-alanyl-L-tryptophyl-D-phenylalanyl-L-lysinamide] (H-H[dW]AW[dF]K-NH2)
Survival period (SOD1^G93A mice [1]): 138 ± 2 (30) day | Amount of change in body weight (SOD1^G93A mice [1]): 1.9 ± 0.2 (30) g | Food intake (SOD1^G93A mice [1]): 142.7 ± 2.1 (30) g

Human ghrelin: peptide of 28 amino acids (SEQ ID NO: 1), hydroxy group of the 3rd residue (serine) acylated with n-octanoyl group; endogenous GHS-R ligand (GSS(Octanoyl)FLSPEHQRVQQRKESKKPPAKLQPR; listed as Homo sapiens)
MuRF1 mRNA expression level (MuRF1 mRNA): 207 ± 36 % | The number of motor neurons (SOD1^G93A mice [2]; relative to WT-control group = 100%, restricted feeding, T9 anterior horn): 66 ± 5 % | Amount of change in body weight (SOD1^G93A mice [2]; restricted feeding 2.8 to 2.9 g/day, 6 weeks after start): −1.4 ± 0.7**^,## g | Forelimb muscle strength (SOD1^G93A mice [2]; restricted feeding, 7 weeks after start): 0.77 ± 0.06 N | Amount of change in lower-body skeletal muscle (SOD1^G93A mice [2]; restricted feeding, 7 weeks after start, X-ray CT): −0.9 ± 0.2**^,# g | Survival period longer on average than the survival days of the vehicle group (SOD1^G93A mice [3]; 1 mg/kg subcutaneously twice a day from age 10 weeks): 21.8% | Survival period (SOD1^G93A mice [3]; 1 mg/kg subcutaneously twice a day from age 10 weeks until death, mean ± SE): 179 ± 8 (13) day | Amount of change in body weight (SOD1^G93A mice [3]; [8]): 2.1 ± 0.4 (13) g | Food intake (SOD1^G93A mice [3]; [8]): 176.2 ± 3.5 (13) g | Change in forelimb muscle strength (SOD1^G93A mice [3]; 1 mg/kg subcutaneously twice a day, from age 10 weeks to after 8-weeks of administration, mean ± SE): −0.08 ± 0.07 (13) N | Survival period longer on average than the survival days of the vehicle group (SOD1^G93A mice [4]): 17.6% | Survival period (SOD1^G93A mice [4]; mean ± SE): 180 ± 11 (9) day | Atrogin 1 mRNA expression level (Atrogin-1 mRNA): 205 ± 34 % | Survival period longer on average than the survival days of the vehicle group (SOD1^G93A mice [5]; 50 μg/day continuous subcutaneous from age 10 weeks): 13.8% | Amount of change in body weight (SOD1^G93A mice [5]; [9]): 2.6 ± 0.4 (15) g | Food intake (SOD1^G93A mice [5]; [9]): 188.2 ± 3.6 (15) g | Survival period (SOD1^G93A mice [5]; 50 μg/day continuous subcutaneous from age 10 weeks, mean ± SE): 173 ± 4 (15) day | Forelimb muscle strength (SOD1^G93A mice [5]; 50 μg/day continuous subcutaneous, after 6-weeks of administration (16th week of age), mean ± SE): 0.96 ± 0.05 (15) N | Lower-body skeletal muscle mass (SOD1^G93A mice [5]; 50 μg/day continuous subcutaneous, after 8-weeks of administration, X-ray CT, mean ± SE): 5.7 ± 0.3 (15) g | Plasma total cholesterol concentration (SOD1^G93A mice [5]; 50 μg/day continuous subcutaneous, after 8-weeks of administration, mean ± SE): 85.8 ± 4.0 (15) mg/dL | The number of motor neurons (SOD1^G93A mice [6]): 84 ± 7 (7)*^,## %

C[C@H](NC(=O)[C@@H](Cc1ccc2ccccc2c1)NC(=O)[C@@H](C)N)C(=O)N[C@@H](Cc1c[nH]c2ccccc12)C(=O)N[C@H](Cc1ccccc1)C(=O)N[C@@H](CCCCN)C(N)=O [Pralmorelin, D-Alanyl-D-(2-naphthyl)alanyl-L-alanyl-L-tryptophyl-D-phenylalanyl-L-lysinamide] (H-[dA][d2Nal]AW[dF]K-NH2)
Increase of the proportion of PC-12 cells having dendrites and axons 1.5 times larger than the size of the cells, compared with a control group [7]: approximately 1.2 times

CN(C)N(C)C(=O)[C@@]1(Cc2ccccc2)CCCN(C(=O)[C@@H](Cc2c[nH]c3ccccc23)NC(=O)C(C)(C)N)C1 [Anamorelin, 2-Amino-N-{(1R)-2-[3-benzyl-3-(N,N′,N′-trimethylhydrazinocarbonyl)piperidin-1-yl]-1-((1H-indol-3-yl)-2-oxoethyl)-2-methylpropionamide}]
Survival period (SOD1^G93A mice [1]): 136 ± 2 (31) day | Amount of change in body weight (SOD1^G93A mice [1]): 0.9 ± 0.2 (31) g | Food intake (SOD1^G93A mice [1]): 139.5 ± 2.5 (31) g
